Assay results taken from PMC10098502, “Characterization of the molecular mechanisms of silicon uptake in coccolithophores” (Environmental Microbiology, 2022).

Tested on: T1, CbSITL
T1 construct: gene SITL
Conditions: Na+-dependent; 150 mM external NaCl, 50 mM Tris pH 7.4, internal 150 mM KCl and 6 mM Zn acetate, valinomycin; sigmoidal rate curve

For `O[Si](O)(O)O` [silicic acid], the Km was 31.8 ± 2.5 µM.
